Results: patent US12582672B2, “Vanadium compositions and methods for treatment of cancer” (THE BROAD INSTITUTE, INC., priority 2018, dated 2026)
Entries after “also recorded” stand apart in the source; their conditions may differ.

Columns and labels:
578 cancer cell lines = experiment: PRISM multiplexed cellular viability assay; format: cell-based; conditions: for prediction of cell line sensitivity by SLC26A2 expression: more than 4,000 compounds profiled against 578 cancer cell lines
Method: Parental cell lines were obtained from the Cancer Cell Line Encyclopedia (CCLE) project (1). PRISM cell line barcoding, pooling, and screening was performed as previously described with several improvements to the original method (2). First, the lentiviral vector was modified to encode the unique barcode identifier at the end of the puromycin resistance gene. This enables barcodes to be detected using a variant of the mRNA capture and Luminex detection method developed for the L1000 gene expression assay (3). Second, a set of ten inert barcodes were spiked-in to each well of each plate after cell lysis to control for variation in PCR amplification as detailed below.
Luminex technology produced .Ixb files containing data for each Luminex bead observed during detection. These .Ixb files were processed to compute Median Fluorescence Intensity (MFI) values, calculated as the median of the values obtained for all beads corresponding to a single PRISM barcode.
MFI values were log-transformed (logMFI) and used to perform basic quality control. To detect probable screening artifacts, logMFI values were centered to the median logMFI for each cell line on each plate in order to put the measurements from each cell line on the same scale. For each well on each plate, the median of these centered values was then standardized according to the global median and global MAD across all plate wells in the same position. Data from wells with a standardized score of greater than 5 or less than −5 were excluded from all further processing steps.
For each cell line on each plate, the distribution of MFI values observed for the DMSO-treated negative controls was compared to that of the positive controls using a robust form of the Strictly Standardized Mean Difference (SSMD*)′. Specifically, SSMD* was calculated as: […]
Data corresponding to SSMD values less than 2 were removed before calculating cell viability.
The data in the instant disclosure were produced according to two different screening protocols. In the PR500 protocol, ten inert barcodes were spiked-in to each well of each plate after cell lysis. For data produced using the PR500 protocol, normalized MFI (nMFI) values were computed by taking the ratio of each MFI value against the median of the inert barcodes within each well. For data produced before the PR500 protocol was introduced, nMFI values were set equal to MFI values.
Cell viability was calculated as the ratio of nMFI to the median of the nMFI from the DMSO-treated negative controls for each cell line on each plate. Batch effects produced from variable detection and assay conditions were then removed using ComBat (4). The final viability values were calculated as the median of the batch-corrected cell viabilities from biological replicates for each cell line, compound and dose.
Measures of dose response were obtained by fitting 3-parameter logistic curves to viability values for each compound and cell line using the R package ‘drc’. Following the practice of Smirnov and Safikhani (5), viability was truncated at 1.0 and fit as a function of drug concentration according to:
[formula] where all concentrations are in the natural logarithm scale. IC50 values were defined as the concentration c at which V(c)=0.5, given by the formula:
[formula] The Area Under the dose response Curve (AUC) was calculated using the normalized integral: […]
The formulation above puts AUC values on a scale between 0 and 1, where lower AUC values indicate increased sensitivity to the treatment.

[1] = test system: SLC26A2 knockouts in A375, OVISE, and A2058 cell lines; experiment: CellTiter-Glo cellular viability assay in CRISPR-Cas9 SLC26A2 knockout cell lines; format: cell-based; conditions: FIGS. 7A-7C
Source text: XP003, XP023, psPAX, and pMD2.G vectors were acquired from the Broad Genetic Perturbation Platform (GPP). Oligos for sgRNAs designs were generated using Broad GPP sgRNA guide generator resource (on the World Wide Web at (www)broad institute.org/gpp/db/analvsis-tools/sgrna-design) and the respective oligos were synthesized by Integrated DNA Technologies. In order to clone the sgRNAs into either the XPR003 guide only or XPRO23 all-in-one crispr lentiviral expression systems the protocol available on the Broad GPP website (www.broadinstitute.org/gpp/db/resources/protocols) was followed.
In order to generate viral vectors, HEK293T cells were seeded in 6 well plates at a density of 1.5E6 cells per well. Cells were then transfected with a mixture of TranslT@-LT1 Transfection Reagent (MirusBio #M1R2304), psPAX2, pMD2.G, lentiviral plasmid diluted in Opti-MEM™ (Thermo #31985062). The following day media was changed DMEM (Thermo #10566016) with 30% FBS (Sigma 18A079). 72 hrs after transfection, virus containing media was collected and run through a 0.2 uM filter to remove cellular debris. Virus was aliquoted and stored short term at −20 C until infection day. […]
Cell viability was assayed using a modified manufacturer's protocol for CellTiter-Glo® (Promega #G7573). […] Luminescence was measured with an integration time of 0.1 s using Envision Microplates Reader (PERKIN ELMER #2105-0010). […]

[2] = diabetic rats; cited from earlier work
[3] = molecular target: T1, protein tyrosine phosphatase-1B (PTP-1B) (Homo sapiens, UniProt P18031); conditions: cited from earlier work
T1 sequence (P18031 1-435): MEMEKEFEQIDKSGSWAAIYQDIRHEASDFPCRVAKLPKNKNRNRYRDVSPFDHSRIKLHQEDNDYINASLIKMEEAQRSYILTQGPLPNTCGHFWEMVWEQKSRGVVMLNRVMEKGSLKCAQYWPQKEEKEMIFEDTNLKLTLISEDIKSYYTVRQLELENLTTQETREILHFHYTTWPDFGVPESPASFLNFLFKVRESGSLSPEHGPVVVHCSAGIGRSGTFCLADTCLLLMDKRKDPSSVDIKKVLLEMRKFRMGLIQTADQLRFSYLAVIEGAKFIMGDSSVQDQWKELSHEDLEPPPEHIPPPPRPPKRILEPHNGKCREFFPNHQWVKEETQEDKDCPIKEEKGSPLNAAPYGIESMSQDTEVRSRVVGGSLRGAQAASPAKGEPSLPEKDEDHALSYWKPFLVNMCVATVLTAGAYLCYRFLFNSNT

For CCc1occc(=O)c1[O][V](=[O])[O]c1c(CC)occc1=O [BEOV, bis(ethylmaltolato)oxovanadium(IV)], which “prediction of cell line sensitivity by SLC26A2 expression” value (“prediction of cell line sensitivity” below) (578 cancer cell lines) is on record?
Its value is “high SLC26A2 transcriptional target gene expression predicted cell line sensitivity”.

Which “prediction of cell line sensitivity” value (578 cancer cell lines) does the source give for CC(C)c1occc(=O)c1[O][V](=[O])[O]c1c(C(C)C)occc1=O [BIOV, bis(isopropylmaltolato)oxovanadium(IV)] here?
Its value is “high SLC26A2 transcriptional target gene expression predicted cell line sensitivity”.

For Cc1occc(=O)c1[O][V](=[O])[O]c1c(C)occc1=O [BMOV, bis(maltolato)oxovanadium(IV)], which “selective killing of cancer cell lines” value (578 cancer cell lines; SLC26A2-high versus lower SLC26A2 expression cell lines) is on record?
Its value is “selective killing of SLC26A2-high cancer cell lines; also recorded: selectively kills ovarian cancer cells, bone cancer cells, and melanoma cells”.

And the “prediction of cell line sensitivity” value (578 cancer cell lines)?
The value was “high SLC26A2 transcriptional target gene expression predicted cell line sensitivity”.

And the “effect of SLC26A2 knockout on BMOV sensitivity (percent viability curves)” value [1]?
The value was “SLC26A2 knockouts rescue BMOV sensitivity”.

And the “glycaemia and insulin levels” value [2]?
Its value is “restore normoglycaemia without rising insulin levels”.

And the phosphatase inhibition [3]?
The phosphatase inhibition was “potent phosphatase inhibitor”.

For CCCCc1occc(=O)c1[O][V](=[O])[O]c1c(CCCC)occc1=O [BnBOV, bis(n-butylmaltolato)oxovanadium(IV)], which “prediction of cell line sensitivity” value (578 cancer cell lines) is on record?
Its value is “high SLC26A2 transcriptional target gene expression predicted cell line sensitivity”.
